We go through ten molecules from PMC9275698, “Morindone from Morinda citrifolia as a potential antiproliferative agent against colorectal cancer cell lines” (PLoS ONE, 2022).

For one data set, the system named is HCT116 cells. The data set is described as follows: MTT cell cytotoxicity assay, HCT116. To be noted: for IC50: MTT, 72 hours, mean ± SD; for Selectivity index (SI) HCT116: IC50 in normal cells (CCD841 CoN) / IC50 in HCT116. It counts as cell-based, human. As to the method: (§1) Three human colorectal cancer cell lines: HT29 cells (colorectal adenocarcinoma with p53 and APC mutation), LS174T cells (colorectal adenocarcinoma with KRAS mutation) and HCT116 cells (colorectal carcinoma with KRAS mutation) as well as normal colon, CCD841 CoN cells were obtained from American Type Cell Culture (Manassas, VA, USA). All cell lines were cultured in an incubator under the condition of 37°C temperature, humidified 5% CO2 air atmosphere. Cells were maintained in Dulbecco’s Modified Eagle Medium (DMEM) (Corning, NY, USA), supplemented with 10% Fetal Bovine Serum (FBS) (Sigma-Aldrich, St Louis, MO, USA), 25mM HEPES (Sangon Biotech, Shanghai, China) and 1% Penicillin/Streptomycin (Merck, Germany).
(§2) HCT116 wells were seeded at 7,500 cells/well while other cells were seeded at 30,000 cells/well in 96 well plates and allowed for 24 hours incubation. Cells were then treated with anthraquinone compounds at series of 2-fold dilution concentrations (50μM, 25μM, 12.5μM, 6.25μM, 3.12μM, 1.56μM, 0.78μM, 0.39μM) for 72 hours. 5-fluorouracil and DOX were used as positive controls in the treatment. Cell cytotoxicity was measured using the MTT Cell Count kit according to the manufacturer’s protocol. Assay was performed in triplicates and repeated in three individual experiments. The absorbance (A) was measured with microplate reader at 570nm wavelength and normalized to control. The half-maximal inhibitory concentration (IC50) value was determined using GraphPad Prism 8 software (GraphPad Software, Inc., CA, USA). Cell viability was calculated as follows: […]

In the next data set the test system is HT29 cells. The experiment in a line: MTT cell cytotoxicity assay, HT29. The following applies: for IC50: Homo sapiens, HT-29, MTT, 72 hours, mean ± SD; for Selectivity index (SI) HT29: IC50 in normal cells (CCD841 CoN) / IC50 in HT29. It counts as cell-based, human. As to the method:
as §1, §2

Another data set relates to CCD841 CoN cells. The experiment in a line: MTT cell cytotoxicity assay, normal colon cells. The following applies: Homo sapiens, CCD-841CoN, 72 hours. It counts as cell-based. As to the method:
as §1, §2

Another data set deals with LS174T cells. The experiment in a line: MTT cell cytotoxicity assay, LS174T. It counts as cell-based, human. The following applies: for IC50: Homo sapiens, LS174T, MTT, 72 hours, mean ± SD; for Selectivity index (SI) LS174T: IC50 in normal cells (CCD841 CoN) / IC50 in LS174T. As to the method: as §1, §2
The test system of data set [1] is HCT116 cells (colorectal cancer). The following applies: cited from earlier work.
The test system of data set [2] is MCF-7 cells (breast cancer). The following applies: cited from earlier work.
The test system of data set [3] is HepG2 cells (hepatocellular carcinoma). To be noted: cited from earlier work.
The subject of the next data set is C. lipolytica. Set-up: method as in PMID 21214480. To be noted: cited from earlier work.
The subject of data set [4] is oxacillin-resistant Staphylococcus aureus. Set-up: method as in PMID 20521552. The following applies: cited from earlier work.

The structures appear in SMILES notation. Where a name gives a salt, the structure may show the parent alone.

Molecule `COc1c(O)cc2c(c1O)C(=O)c1ccc(C)c(O)c1C2=O` [1,3,5-trihydoxy-2-methoxy-6-methyl anthraquinone] had a melting point of 235 to 239 °C. Also, the half-inhibitory concentration (IC50) in the data set on HCT116 cells (Homo sapiens, HCT-116, 72 h) is less than 25 µM. In the data set on HCT116 cells, the “Selectivity index (SI) HCT116” value is 4.55 and 24.57 ± 0.07 µM corresponded to half-maximal inhibition (IC50). In the data set with HT29 cells, the concentration for half-maximal inhibition (IC50) is greater than 50 µM and the “Selectivity index (SI) HT29” value amounted to 0.03. The molecule further had a concentration for half-maximal inhibition (IC50) in the data set on CCD841 CoN cells greater than 50 µM. For the same molecule, in the data set on LS174T cells, the IC50 is greater than 50 µM and the “Selectivity index (SI) LS174T” value amounted to 0.97.
For `O=c1[nH]cc(F)c(=O)[nH]1` [5-Fluorouracil, 5-fluorouracil, reference compound], the IC50 in the data set on HCT116 cells (Homo sapiens, HCT-116, 72 h) came to 5 ± 0.04 µM; in the data set with HT29 cells, 0.2 ± 0.05 µM; in the data set on LS174T cells, 4.16 ± 0.02 µM.
With `COc1c(C=O)c(O)cc2c1C(=O)c1ccccc1C2=O` [Damnacanthal (2), Damnacanthal], in the data set with HCT116 cells, the “Selectivity index (SI) HCT116” value was determined as 951.60. Also, the IC50 is 0.74 ± 0.06 µM in the data set on HCT116 cells; less than 25 µM with HCT116 cells (listed as damnacanthal); 28.17 ± 0.08 µM in the data set with HT29 cells; greater than 50 µM in the data set with CCD841 CoN cells; greater than 50 µM with LS174T cells. In the data set with HT29 cells, the “Selectivity index (SI) HT29” value is listed as 24.85. Besides, the “Anticancer and antitumor activities towards HCT116 cells” value in [1] is “Good anticancer and antitumor activities”. The “Anticancer and antitumor activities towards MCF-7 cells” value in [2] was “Good anticancer and antitumor activities”. In addition, the “Anticancer and antitumor activities towards HepG2 cells” value in [3] is “Good anticancer and antitumor activities”. Moreover, the “Selectivity index (SI) LS174T” value in the data set on LS174T cells came out at 0.28.
`COc1c(CO)c(O)cc2c1C(=O)c1ccccc1C2=O` [Damnacanthol (7), Damnacanthol] had a melting point of 156 to 158 °C. The molecule further displayed an IC50 in the data set with HCT116 cells (Homo sapiens, HCT-116, 72 h) of less than 25 µM. In the data set with HCT116 cells, this molecule gave an IC50 of 18.47 ± 0.02 µM. For the same molecule, in the data set with HT29 cells, the IC50 is greater than 50 µM and the “Selectivity index (SI) HT29” value worked out at 1.46. Moreover, in the data set with CCD841 CoN cells, the IC50 is greater than 50 µM. For the same molecule, in the data set with LS174T cells, the half-inhibitory concentration (IC50) is greater than 50 µM and the “Selectivity index (SI) LS174T” value was found to be 0.59.
With `COc1cccc2c1C(=O)c1c(O)c3c(c(O)c1C2=O)C[C@@](O)(C(=O)CO)C[C@@H]3O[C@H]1C[C@H](N)[C@H](O)[C@H](C)O1` [Doxorubicin hydrochloride, doxorubicin hydrochloride, reference compound], the IC50 was found to be 0.17 ± 0.04 µM in the data set on HCT116 cells (Homo sapiens, HCT-116, 72 h); 0.3 ± 0.06 µM with HT29 cells; 2.27 ± 0.04 µM with LS174T cells.
Regarding `COCc1c(O)cc2c(c1O)C(=O)c1ccccc1C2=O` [Lucidin-ω-methylether (8), Lucidin-ω-methylether], the melting point is 170 to 173 °C. In the data set on HCT116 cells (Homo sapiens, HCT-116, 72 h), this molecule registered an IC50 of less than 25 µM. This molecule also registered a half-maximal inhibitory concentration (IC50) with HCT116 cells of 14.88 ± 0.01 µM. Also, the IC50 in the data set with HT29 cells was greater than 50 µM. The same molecule had a concentration for half-maximal inhibition (IC50) in the data set on CCD841 CoN cells greater than 50 µM. Further, the IC50 in the data set on LS174T cells was greater than 50 µM.
Consider `Cc1ccc2c(c1O)C(=O)c1ccc(O)c(O)c1C2=O` [Morindone (4), Morindone], for which the “Selectivity index (SI) HCT116” value in the data set on HCT116 cells is given as 76.25. The IC50 in the data set with HCT116 cells is 10.7 ± 0.04 µM; in the data set on HCT116 cells (listed as morindone), less than 25 µM; in the data set on HT29 cells it was 19.2 ± 0.05 µM; with CCD841 CoN cells it was greater than 50 µM; in the data set on LS174T cells it was 20.45 ± 0.03 µM. Also, the “Selectivity index (SI) HT29” value with HT29 cells worked out at 42.49. In addition, the “Antimicrobial activity against C. lipolytica” value in the data set with C. lipolytica is “strong antimicrobial activity”. For the same molecule, in data set [4], the “Antimicrobial activity against oxacillin-resistant Staphylococcus aureus” value is “strong antimicrobial activity”. The “Selectivity index (SI) LS174T” value in the data set with LS174T cells is given as 39.89.
`O=Cc1c(O)cc2c(c1O)C(=O)c1ccccc1C2=O` [Nordamnacanthal (1), Nordamnacanthal] gave a melting point of 219 to 222 °C. Besides, the IC50 in the data set with HCT116 cells (Homo sapiens, HCT-116, 72 h) was greater than 50 µM. For the same molecule, the “Selectivity index (SI) HCT116” value with HCT116 cells is given as 0.97. Moreover, in the data set on HT29 cells, the concentration for half-maximal inhibition (IC50) was greater than 50 µM and the “Selectivity index (SI) HT29” value worked out at 0.42. For the same molecule, the half-inhibitory concentration (IC50) with CCD841 CoN cells is greater than 50 µM. Moreover, in the data set on LS174T cells, the concentration for half-maximal inhibition (IC50) is greater than 50 µM and the “Selectivity index (SI) LS174T” value worked out at 4.79.
For `Cc1c(O)cc2c(c1O)C(=O)c1ccccc1C2=O` [Rubiadin (6), Rubiadin], the IC50 is greater than 50 µM in the data set with HCT116 cells (Homo sapiens, HCT-116, 72 h); greater than 50 µM in the data set with HT29 cells; greater than 50 µM with CCD841 CoN cells; greater than 50 µM with LS174T cells.
In the case of `Cc1ccc2c(c1O)C(=O)c1ccc(O)cc1C2=O` [Sorendidiol (5), Sorendidiol], the IC50 in the data set with HCT116 cells (Homo sapiens, HCT-116, 72 h) was greater than 50 µM; with HT29 cells, 27.17 ± 0.07 µM; with CCD841 CoN cells, greater than 50 µM; in the data set with LS174T cells, greater than 50 µM. Besides, in the data set on HCT116 cells, the “Selectivity index (SI) HCT116” value is 7.10. Moreover, the “Selectivity index (SI) HT29” value in the data set with HT29 cells is recorded as 29.19.
